Measured values as given in patent US11046699B2, “Pyrazolo-pyrimidin-amino-cycloalkyl compounds and their therapeutic uses” (RAPT THERAPEUTICS, INC., priority 2018, dated 2021).

Molecular target: GCN2 (Homo sapiens, UniProt Q9P2K8)
Experiment: GCN2 enzymatic endpoint assay: phosphorylation of GFP-eIF2α measured by TR-FRET (Lanthascreen)
Assay type: biochemical
Conditions: GCN2 biochemical IC50; 4 nM GCN2, 2 μM ATP, 80 nM GFP-eIF2α, 90 min RT; read-out: GCN2 activity
Outline: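 Endpoint kinase reaction with 2 μM ATP and 80 nM GFP-labelled eIF2α substrate, run at room temperature for 90 min, then stopped with EDTA. Phospho-substrate detected by terbium-antibody TR-FRET, activity taken as the 520/495 nm emission ratio.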

GCN2, sequence (Q9P2K8 whole entry): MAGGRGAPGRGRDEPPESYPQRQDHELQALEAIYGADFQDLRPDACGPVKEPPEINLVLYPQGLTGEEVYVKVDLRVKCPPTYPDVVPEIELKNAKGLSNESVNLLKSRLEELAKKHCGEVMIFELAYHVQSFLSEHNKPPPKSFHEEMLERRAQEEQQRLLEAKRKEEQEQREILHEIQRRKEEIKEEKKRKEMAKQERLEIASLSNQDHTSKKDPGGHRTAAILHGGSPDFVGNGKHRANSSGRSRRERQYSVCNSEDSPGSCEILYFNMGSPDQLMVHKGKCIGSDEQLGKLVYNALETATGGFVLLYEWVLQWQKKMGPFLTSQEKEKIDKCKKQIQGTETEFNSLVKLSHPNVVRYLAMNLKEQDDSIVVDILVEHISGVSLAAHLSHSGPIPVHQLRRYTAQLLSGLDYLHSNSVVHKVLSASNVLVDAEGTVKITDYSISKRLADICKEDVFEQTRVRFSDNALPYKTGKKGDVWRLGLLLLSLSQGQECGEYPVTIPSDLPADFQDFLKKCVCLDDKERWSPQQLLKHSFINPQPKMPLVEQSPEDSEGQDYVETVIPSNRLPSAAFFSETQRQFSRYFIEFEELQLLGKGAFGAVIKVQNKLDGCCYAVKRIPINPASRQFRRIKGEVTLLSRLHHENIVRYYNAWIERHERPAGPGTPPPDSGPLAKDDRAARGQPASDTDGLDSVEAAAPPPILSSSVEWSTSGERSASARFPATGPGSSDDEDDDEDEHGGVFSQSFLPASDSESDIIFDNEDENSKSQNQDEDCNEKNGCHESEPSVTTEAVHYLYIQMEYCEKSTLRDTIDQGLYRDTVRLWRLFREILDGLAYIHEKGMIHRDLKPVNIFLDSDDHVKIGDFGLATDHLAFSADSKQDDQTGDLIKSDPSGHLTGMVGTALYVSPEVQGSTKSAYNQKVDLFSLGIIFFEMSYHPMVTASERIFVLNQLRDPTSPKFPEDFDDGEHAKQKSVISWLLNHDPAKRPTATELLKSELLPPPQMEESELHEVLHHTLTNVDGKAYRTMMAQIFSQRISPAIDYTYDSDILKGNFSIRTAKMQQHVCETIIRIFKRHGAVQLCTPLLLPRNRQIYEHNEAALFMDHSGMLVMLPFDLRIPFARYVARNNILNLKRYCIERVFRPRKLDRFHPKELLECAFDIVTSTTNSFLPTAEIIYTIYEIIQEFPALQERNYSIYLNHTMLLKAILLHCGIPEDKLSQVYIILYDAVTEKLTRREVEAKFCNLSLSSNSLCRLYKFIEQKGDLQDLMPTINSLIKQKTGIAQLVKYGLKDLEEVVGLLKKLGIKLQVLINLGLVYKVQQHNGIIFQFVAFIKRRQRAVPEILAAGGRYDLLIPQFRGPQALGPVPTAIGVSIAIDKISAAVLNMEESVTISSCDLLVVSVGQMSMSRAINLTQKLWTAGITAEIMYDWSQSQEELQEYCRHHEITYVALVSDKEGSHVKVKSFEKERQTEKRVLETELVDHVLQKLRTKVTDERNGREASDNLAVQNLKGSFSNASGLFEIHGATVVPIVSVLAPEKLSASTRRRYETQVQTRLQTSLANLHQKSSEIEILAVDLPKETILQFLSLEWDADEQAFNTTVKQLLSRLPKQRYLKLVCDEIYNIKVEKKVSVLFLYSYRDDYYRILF

Row | IC50 | SMILES
1 | 25 to 200 nM | CNC(=O)[C@]1(C)CC[C@@H](Nc2ncc3c(Br)nn(-c4ccc(-c5ncco5)c(CC#N)c4)c3n2)C1 [Example 45, (1R,3R)-3-((3-bromo-1-(3-(cyanomethyl)-4-(oxazol-2-yl)phenyl)-1H-pyrazolo[3,4-d]pyrimidin-6-yl)amino)-N,1-dimethylcyclopentane-1-carboxamide; 2,2,2-trifluoroacetic acid]
2 | 25 to 200 nM | CNC(=O)[C@]1(C)CC[C@@H](Nc2ncc3c(Br)nn(-c4ccc5ncc(C(C)(C)O)cc5c4)c3n2)C1 [Example 21, (1R,3R)-3-((3-bromo-1-(3-(2-hydroxypropan-2-yl)quinolin-6-yl)-1H-pyrazolo[3,4-d]pyrimidin-6-yl)amino)-N,1-dimethylcyclopentane-1-carboxamide]
3 | < 25 nM | CNC(=O)[C@]1(C)CC[C@@H](Nc2ncc3c(I)nn(-c4cc(F)c5ncccc5c4)c3n2)C1 [Example 31, (1R,3R)-3-((1-(8-fluoroquinolin-6-yl)-3-iodo-1H-pyrazolo[3,4-d]pyrimidin-6-yl)amino)-N,1-dimethylcyclopentane-1-carboxamide; 2,2,2-trifluoroacetic acid]
4 | 25 to 200 nM | CNC(=O)[C@]1(C)CC[C@@H](Nc2ncc3c(Br)nn(-c4ccc(-c5nnc(C)o5)c(CO)c4)c3n2)C1 [Example 58, (1R,3R)-3-((3-bromo-1-(3-(hydroxymethyl)-4-(5-methyl-1,3,4-oxadiazol-2-yl)phenyl)-1H-pyrazolo[3,4-d]pyrimidin-6-yl)amino)-N,1-dimethylcyclopentane-1-carboxamide]

Same assay, conditions: tested as described in Example 77; compound and/or hydrochloride, dihydrochloride or trifluoroacetic acid salt; read-out: IC 50 Activity

Row | IC50 | SMILES
5 | 25 to 200 nM | CNC(=O)[C@@H]1CC[C@@H](Nc2ncc3c(Br)nn(-c4cc(C#N)c5c(c4)CCO5)c3n2)C1 [(1R,3R)-3-[[3-bromo-1-(7-cyano-2,3-dihydro-benzofuran-5-yl)pyrazolo[3,4-d]pyrimidin-6-yl]amino]-N-methyl-cyclopentanecarboxamide]
6 | 200 to 500 nM | CS(=O)(=O)CCNC(=O)[C@@H]1CC[C@@H](Nc2ncc3c(Br)nn(-c4ccc5nccnc5c4)c3n2)C1 [(1R,3R)-3-((3-bromo-1-(quinoxalin-6-yl)-1H-pyrazolo[3,4-d]pyrimidin-6-yl)amino)-N-(2-(methylsulfonyl)ethyl)cyclopentane-1-carboxamide]
7 | < 25 nM | O=C([C@@H]1CC[C@@H](Nc2ncc3c(Br)nn(-c4cc(F)c5ncccc5c4)c3n2)C1)N1CCN2C(=O)CC[C@H]2C1 [(8aS)-2-[(1R,3R)-3-[[3-bromo-1-(8-fluoro-6-quinolyl)pyrazolo[3,4-d]pyrimidin-6-yl]amino]cyclopentane-carbonyl]-1,3,4,7,8,8a-hexahydro-pyrrolo[1,2-a]pyrazin-6-one]
8 | 25 to 200 nM | CNC(=O)[C@]1(C)CC[C@@H](Nc2ncc3c(Br)nn(-c4ccc(C#N)c(CCN)c4)c3n2)C1 [(1R,3R)-3-[[1-[3-(2-aminoethyl)-4-cyano-phenyl]-3-bromo-pyrazolo[3,4-d]pyrimidin-6-yl]amino]-N,1-dimethyl-cyclopentanecarboxamide]
9 | 25 to 200 nM | CNC(=O)[C@]1(C)CCC(Nc2ncc3c(Br)nn(-c4cc(F)cc(C5COC5)c4)c3n2)C1 (stereo partly drawn) [(1R)-3-[[3-bromo-1-[3-fluoro-5-(oxetan-3-yl)phenyl]pyrazolo[3,4-d]pyrimidin-6-yl]amino]-N,1-dimethyl-cyclopentane-carboxamide]
10 | 25 to 200 nM | CNC(=O)C1(C)CC[C@@H](Nc2ncc3c(Br)nn(-c4ccc5nc(OC)ccc5c4)c3n2)C1 (stereo partly drawn) [(3R)-3-[[3-bromo-1-(2-methoxy-6-quinolyl)pyrazolo[3,4-d]pyrimidin-6-yl]amino]-N,1-dimethyl-cyclopentanecarboxamide]
11 | 25 to 200 nM | CC1(C(=O)NCCF)CC[C@@H](Nc2ncc3c(Br)nn(-c4cc(F)c5ncccc5c4)c3n2)C1 (stereo partly drawn) [(3R)-3-[[3-bromo-1-(8-fluoro-6-quinolyl)pyrazolo[3,4-d]pyrimidin-6-yl]amino]-N-(2-fluoroethyl)-1-methyl-cyclopentane-carboxamide]
12 | < 25 nM | N#CC1CN(C(=O)[C@@H]2CC[C@@H](Nc3ncc4c(Br)nn(-c5cc(F)c6ncccc6c5)c4n3)C2)C1 [1-[(1R,3R)-3-[[3-bromo-1-(8-fluoro-6-quinolyl)pyrazolo[3,4-d]pyrimidin-6-yl]amino]cyclopentanecarbonyl]azetidine-3-carbonitrile]
13 | 25 to 200 nM | Cc1nnc(-c2ccc(-n3nc(Br)c4cnc(N[C@@H]5CC[C@@](C)(C(=O)NC6CC6)C5)nc43)cc2)s1 [(1R,3R)-3-[[3-bromo-1-[4-(5-methyl-1,3,4-thiadiazol-2-yl)phenyl]pyrazolo[3,4-d]pyrimidin-6-yl]amino]-N-cyclopropyl-1-methyl-cyclopentanecarboxamide]
14 | 25 to 200 nM | CNC(=O)[C@@H]1CC[C@@H](Nc2ncc3c(Br)nn(-c4ccc(-c5nnn[nH]5)cc4)c3n2)C1 [(1R,3R)-3-((1-(4-(1H-tetrazol-5-yl)phenyl)-3-bromo-1H-pyrazolo[3,4-d]pyrimidin-6-yl)amino)-N-methylcyclopentane-1-carboxamide]
15 | 25 to 200 nM | CNC(=O)[C@]1(C)CC[C@@H](Nc2ncc3c(Br)nn(-c4ccc(-c5nnc(CC(C)O)o5)cc4)c3n2)C1 (stereo partly drawn) [(1R,3R)-3-[[3-bromo-1-[4-[5-(2-hydroxy-propyl)-1,3,4-oxadiazol-2-yl]phenyl]pyrazolo [3,4-d]pyrimidin-6-yl]amino]-N,1-dimethyl-cyclopentanecarboxamide]
16 | 25 to 200 nM | CNC(=O)[C@]1(C)CC[C@@H](Nc2ncc3c(Br)nn(-c4ccc(-c5nnc(CN)s5)cc4)c3n2)C1 [(1R,3R)-3-[[1-[4-[5-(aminomethyl)-1,3,4-thiadiazol-2-yl]phenyl]-3-bromo-pyrazolo [3,4-d]pyrimidin-6-yl]amino]-N,1-dimethyl-cyclopentanecarboxamide]
17 | 25 to 200 nM | C[C@@H]1CN(C(=O)[C@@H]2CC[C@@H](Nc3ncc4c(Br)nn(-c5ccc6ncccc6c5)c4n3)C2)CCO1 [((1R,3R)-3-((3-bromo-1-(quinolin-6-yl)-1H-pyrazolo[3,4-d]pyrimidin-6-yl)amino)cyclo-pentyl)((R)-2-methylmorpholino)methanone]
18 | < 25 nM | C[C@@]1(C(=O)NCCO)CC[C@@H](Nc2ncc3c(Br)nn(-c4cc(F)c5ncccc5c4)c3n2)C1 [(1R,3R)-3-[[3-bromo-1-(8-fluoro-6-quinolyl)pyrazolo[3,4-d]pyrimidin-6-yl]amino]-N-(2-hydroxyethyl)-1-methyl-cyclopentane-carboxamide]
19 | 25 to 200 nM | CNC(=O)[C@]1(F)CC[C@@H](Nc2ncc3c(Br)nn(-c4cc(F)c5ncccc5c4)c3n2)C1 [(1S,3R)-3-[[3-bromo-1-(8-fluoro-6-quinolyl)pyrazolo[3,4-d]pyrimidin-6-yl]amino]-1-fluoro-N-methyl-cyclopentanecarboxamide]
20 | 25 to 200 nM | CNC(=O)[C@]1(C)CC[C@@H](Nc2ncc3c(Br)nn(-c4cc(CO)cc([N+](=O)[O-])c4)c3n2)C1 [(1R,3R)-3-[[3-bromo-1-[3-(hydroxy-methyl)-5-nitro-phenyl]pyrazolo [3,4-d]pyrimidin-6-yl]amino]-N,1-dimethyl-cyclopentanecarboxamide]
21 | 25 to 200 nM | O=C(NCC(F)(F)CO)[C@@H]1CC[C@@H](Nc2ncc3c(Br)nn(-c4cc(F)c5ncccc5c4)c3n2)C1
22 | < 25 nM | CNC(=O)[C@H]1CC[C@@H](Nc2ncc3c(Br)nn(-c4cc(F)c5ncccc5c4)c3n2)C1 [(1S,3R)-3-[[3-bromo-1-(8-fluoro-6-quinolyl)pyrazolo[3,4-d]pyrimidin-6-yl]amino]-N-methyl-cyclopentanecarboxamide]
23 | 25 to 200 nM | CNC(=O)[C@]1(C)CC[C@@H](Nc2ncc3c(Br)nn(-c4cc(CC#N)c5nccnc5c4)c3n2)C1 [(1R,3R)-3-[[3-bromo-1-[8-(cyanomethyl)quinoxalin-6-yl]pyrazolo[3,4-d]pyrimidin-6-yl]amino]-N,1-dimethyl-cyclopentane-carboxamide]
24 | 25 to 200 nM | CNC(=O)[C@]1(C)CC[C@@H](Nc2ncc3c(Br)nn(-c4ccc(-c5nnc(C)s5)c(CC(O)C(F)(F)F)c4)c3n2)C1 (stereo partly drawn) [(1R,3R)-3-[[3-bromo-1-[4-(5-methyl-1,3,4-thiadiazol-2-yl)-3-(3,3,3-trifluoro-2-hydroxy-propyl)phenyl]pyrazolo[3,4-d]pyrimidin-6-yl]amino]-N,1-dimethyl-cyclopentane-carboxamide]
25 | 25 to 200 nM | Cc1nnc(-c2ccc(-n3nc(Br)c4cnc(N[C@@H]5CC[C@@](C)(CO)C5)nc43)cc2)s1 [[(1R,3R)-3-[[3-bromo-1-[4-(5-methyl-1,3,4-thiadiazol-2-yl)phenyl]pyrazolo [3,4-d]pyrimidin-6-yl]amino]-1-methyl-cyclopentyl]methanol]
26 | 25 to 200 nM | CNC(=O)[C@H]1CC[C@@H](Nc2ncc3c(Br)nn(-c4ccc5nc(OC)ccc5c4)c3n2)C1 [(1S,3R)-3-[[3-bromo-1-(2-methoxy-6-quinolyl)pyrazolo[3,4-d]pyrimidin-6-yl]amino]-N-methyl-cyclopentanecarboxamide]
27 | 25 to 200 nM | CNC(=O)[C@]1(C)CC[C@@H](Nc2ncc3c(Br)nn(-c4ccc5c(c4)OC(C)C(=O)N5C)c3n2)C1 (stereo partly drawn) [(1R,3R)-3-[[3-bromo-1-(2,4-dimethyl-3-oxo-1,4-benzoxazin-7-yl)pyrazolo [3,4-d]pyrimidin-6-yl]amino]-N,1-dimethyl-cyclopentanecarboxamide]
28 | 25 to 200 nM | CNC(=O)[C@]1(C)CC[C@@H](Nc2ncc3c(Br)nn(-c4ccc(-c5nnc(C(=O)N6CCNCC6)s5)cc4)c3n2)C1 [(1R,3R)-3-[[3-bromo-1-[4-[5-(piperazine-1-carbonyl)-1,3,4-thiadiazol-2-yl]phenyl]pyrazolo[3,4-d]pyrimidin-6-yl]amino]-N,1-dimethyl-cyclopentanecarboxamide]

Row | SMILES | IC50
29 | CNC(=O)C1(CC(F)(F)F)CC[C@@H](Nc2ncc3c(Br)nn(-c4ccc(-c5nnc(C)s5)c(CCC#N)c4)c3n2)C1 (stereo partly drawn) | 25 to 200 nM
30 | CNC(=O)[C@]1(C)CC[C@@H](Nc2ncc3c(Br)nn(-c4ccc5ncn(CCN6C(=O)c7ccccc7C6=O)c(=O)c5c4)c3n2)C1 | 25 to 200 nM
